Data as given in patent publication US20140271573A1, “PHARMACO-CELLULAR THERAPEUTIC METHOD FOR THE TREATMENT OF MUSCULAR DYSTROPHIES” (PONTIFICIA UNIVERSIDAD CATÓLICA DE CHILE, priority 2013, published 2014).
“Also recorded” adds a separate entry of the source.

Tests used:
mdx mice [1] = assay: Hematoxylin and eosin histology of tibialis anterior muscle of mdx mice; format: in vivo, mouse; conditions: exercised mdx mice, 1 mg/kg i.p. 3 times per week for 3 months, vs vehicle
Method: (§1) FIG. 4. Andrographolide reduced skeletal muscle damage in mdx mice. To augment the extent of muscle fibrosis, 3 months old mdx mice were subjected to an exercise protocol for 3 months. Along this period one group was treated with 1 mg/kg andrographolide or vehicle (i.p. injections 3 time per week, 6 animal per group). […] B) Evans blue dye uptake in tibialis anterior muscle fibers from wild-type (WT), Vehicle-treated mdx and andrographolide-treated mdx mice. Nuclei were labeled with Hoechst. Mice were injected i.p. with 1% Evans blue dye 24 hours before muscle fixation. Bar corresponds to 200 μm. […] Values are expressed as mean±SD of three independent experiments, using eight mice for each experimental condition. (*, P<0.05 relative to WT mice; #, P<0.05 relative to Vehicle-treated mdx mice).
(§2) Control or mdx (12 weeks old) male mice of C57BL/10 ScSn strain were studied. The animals were kept at room temperature with a […] night-day cycle and fed with pellets and water ad libitum. Experimental exercise was performed for running the mice in a treadmill for three times per week, 30 minutes each time at 12 m/min during 3 or 4 months (De Luca et al., 2005; De Luca et al., 2003). […]
Architecture and histology were detected by hematoxylin-eosin (H&E) stain in transverse sections of muscle (Morales et al., 2011).

C2C12 = assay: Fibronectin and collagen type III protein levels induced by TGF-β1 in C2C12 cells, immunoblot; format: cell-based, mouse; conditions: C2C12, 10 ng/ml TGF-β1, 50 μM andrographolide, 24 hrs
CTGF [2] = assay: CTGF mRNA levels in tibialis anterior muscle of exercised mdx mice, RT-qPCR; format: in vivo, mouse; conditions: 1 mg/kg i.p. 3 times per week for 3 months, vs vehicle
Method: FIG. 3. Andrographolide modulates CTGF action in vivo. A) To augment the extent of muscle fibrosis, 3 months old mdx mice were subjected to an exercise protocol for 3 months. Along this period one group was treated with 1 mg/kg andrographolide or vehicle (i.p. injections 3 time per week, 4 animal per group). CTGF mRNA levels, a downstream TGF-β1 pro-fibrotic mediator) were determined in tibialis anterior muscle from Wild type (WT), Vehicle-Treated mdx and andrographolide-treated mdx mice by RT-qPCR using GAPDH as reference gene. Values correspond to the mean of dCT value±SD of three independent experiments, using four mice for each experimental condition and normalized to WT levels (*, P<0.05 relative to WT mice; #, P<0.05 relative to Vehicle-treated mdx mice). B) Detection of macrophages (F4/80 positive cells) through immunohistochemistry analysis in cryosections of tibialis anterior muscle from andrographolide-treated WT mice that overexpress CTGF by adenovirus (adv CTGF) infection.
as §2

mdx mice [3] = assay: Migration of DiI-labeled tendon fibroblasts injected into tibialis anterior of mdx mice; format: in vivo, mouse; conditions: mdx mice pre-treated 1 mg/Kg, tendon fibroblasts injected one week after treatment, analysed after one month, vs vehicle
Method: FIG. 7. Andrographolide increases cell migration through fibrosis inhibition. A) Migration of DiI-labeled tendon fibroblast cells after injection into the tibialis anterior of 7-month-old mdx mice (3 months old mdx mice exercised for four months). […] B) Quantitative analysis of the spreading DiI-labeled tendon fibroblast cells was calculated by counting DiI-labeled cells in 200 μm×200 μm squares from three non-serial transverse sections for three mice per group.
3 month old mdx mice were exercised for 4 months and treated with 1 mg/Kg andrographolide or Vehicle. One week after the treatment, mice were anesthetized with an intramuscular injection of physiologic saline (10 ml kg^−1) containing ketamine (5 mg ml^−1) and xylazine (1 mg ml^−1) and then injected with approximately 5×10^5 tendon fibroblasts into the tibialis anterior muscle via a 0.20-mm diameter needle inserted along the cranio-caudal axis of the muscle as previously described (Gargioli et al., 2008). Fibroblasts were previously labeled with 2 mMDiI according to the protocol supplied by the manufacturer (Molecular Probes). One month after the injection, mice were sacrificed for morphological analyses.

mdx mice [4] = assay: Survival and proliferation of grafted EGFP satellite cells in mdx mice, EGFP transgene real time qPCR; format: in vivo, mouse
From the text: Alternatively, it might be possibly that the host muscles have a diminished density of satellite cells, thus, the grafted cells would have no competition for the regenerating muscle fibers or instead the transplanted cells presents a better proliferation performance in the andrographolide treated mice muscles. The first possibility seems to be plausible considering the fibroblast migration data (FIG. 5), while the second hypothesis was excluded since no changes in the number of satellite cells present on isolated EDL myofibers obtained from the same transplanted mice in FIG. 5A were observed, with a mean of 12.5 satellite cells per EDL myofiber, as shown in the FIG. 5B. To test the last possibility, whether grafted cells have improved proliferation rate or survival, we purified satellite cells from the EGFP-transgenic C57BL/6 mice that constitutively expressed the EGFP transgene under the control of the chicken b-actin gene (C57BL/6-Tg(ACTbEGFP)10sba; Act-EGFP). […] The EGFP transgene present in the grafted muscles was detected by real time qPCR in parallel with the mouse b-actin as a housekeeping gene. Since every grafted cell carries only one copy of the EGFP gene (the homozygous EGFP mice die within 2 weeks after birth) the EGFP gene detection constitutes a specific, rapid, and objective quantitation of the grafted cells.

mdx mice [5] = assay: Evans blue dye uptake in tibialis anterior muscle fibers of mdx mice; format: in vivo, mouse; conditions: exercised mdx mice, 1 mg/kg i.p. 3 times per week for 3 months
Method: as §1, §2
Animals were injected with Evans Blue dye (1% in PBS) and allowed to stay for 24 hours. […] The percentage of Evans blue dye positive fibers was manually counted in a blinded manner (Straub et al., 1997).

CTGF [6] = assay: CTGF expression induced by TGF-β1 in C2C12 cells, northern blot; format: cell-based, mouse; conditions: C2C12, 10 ng/ml TGF-β1, 50 μM andrographolide, 6 hrs
From the text: FIG. 1. […] (Vial et al., 2008).

MES-13 cells = conditions: cited from earlier work

In the case of `C=C1CC[C@@H]2[C@](C)(CO)[C@H](O)CC[C@@]2(C)[C@@H]1C/C=C1/C(=O)OC[C@H]1O` [andrographolide], the “damaged areas in muscle, hematoxylin and eosin staining” value (mdx mice [1]) is reported as “striking smaller muscle damaged areas; also recorded: prevented the increase of damaged areas”, the “collagen type III protein levels induced by TGF-β1 in vitro” value (C2C12) is reported as “decreased” and the “fibronectin protein levels induced by TGF-β1 in vitro” value (C2C12) is reported as “decreased”. The “CTGF expression (mRNA) in mdx mice” value (CTGF [2]) was “reduced”, the “DiI-labeled cell distribution in muscle” value (mdx mice [3]) was “distributed more homogenously; also recorded: more homogenous” and the “percentage of grafted cells compared to the fibrotic untreated mice” value (mdx mice [4]; 15 days post transplantation, EGFP transgene qPCR) was 3 times. For the same compound, the “transplanted cells that die during the first 2 days” value (mdx mice [4]; EGFP satellite cells grafted in mdx mice, in both cases (treated and untreated)) was 60%, the “Evans blue dye uptake in muscle fibers” value (mdx mice [5]) was “lower Evans blue dye uptake” and the “induction of CTGF expression in response to TGF-β1” value (CTGF [6]) was “reduced”. For the same compound, the “phenotypes indicating diabetic nephropathy in MES-13 cells” value (MES-13 cells; MES-13 cells) was “reduces”, the “antioxidant ability in a cellular environment” value (MES-13 cells) was “do not have antioxidant ability” and the intracellular oxidative states (MES-13 cells; high glucose cultured MES-13 cells) was “reduced”.
